Some test systems named below: MDA-N; COLO 205 colon; SNB-19 CNS; CCRF-CEM leukemia; SF-268 CNS; OVCAR-4 ovarian; PC-3 prostate; NCI-H23 lung; NCI-H522 lung; MDA-MB-435.
Common to all, as to test: inhibition of tumour cell growth, NCI panel, 48 h

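Values below derive from 48-hour exposures of cells grown in 96-well plates, with endpoints linearly interpolated between the two concentrations bracketing the appropriate inhibition level. The concentration for full growth arrest is given as TGI.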

For the compound `CC(C)NC(=O)OCCN=C1c2ccccc2C(Br)C(Br)c2ccccc21` (stereo not given), the TGI with MDA-N is 28.9 µM; in the test with COLO 205 colon, 18.9 µM; in the test on SNB-19 CNS, 43.3 µM; in the test on CCRF-CEM leukemia, 1.69 µM; with SF-268 CNS, 38.7 µM; in the test with OVCAR-4 ovarian it was 33.6 µM. Moreover, the TGI in the test with PC-3 prostate was greater than 48.8 µM; with NCI-H23 lung it was 53.8 µM; in the test with NCI-H522 lung, 3.52 µM; with MDA-MB-435, 27.2 µM.

In the case of `CCOC(=O)C(NC(=O)c1ccccc1)(Nc1ccc(S(=O)(=O)Nc2cc(C)on2)cc1)C(F)(F)F` (stereo not given), the TGI with MDA-N is greater than 100 µM; with COLO 205 colon it was greater than 100 µM; in the test with SNB-19 CNS, greater than 100 µM; in the test with CCRF-CEM leukemia, greater than 100 µM; with SF-268 CNS it was greater than 100 µM; in the test on OVCAR-4 ovarian, greater than 10 µM. Further, the TGI in the test on PC-3 prostate is greater than 100 µM; with NCI-H23 lung, greater than 10 µM; with NCI-H522 lung, greater than 100 µM; in the test on MDA-MB-435 it was greater than 100 µM.

Consider `COc1cc2c(cc1OC)C(C1CC1)ON(C)CC2` (stereo not given), for which the TGI in the test with MDA-N, in the test on COLO 205 colon, with SNB-19 CNS, in the test with CCRF-CEM leukemia, in the test with SF-268 CNS and in the test with OVCAR-4 ovarian was greater than 100 µM each time. The TGI in the test with PC-3 prostate, in the test with NCI-H23 lung, in the test with NCI-H522 lung and in the test with MDA-MB-435 was greater than 100 µM each time.

`CC(=O)N1CN2C(=O)CCC2c2cc(C)ccc21` (stereo not given): the TGI in the test with MDA-N, in the test on COLO 205 colon, in the test on SNB-19 CNS, with CCRF-CEM leukemia, in the test on SF-268 CNS and in the test on OVCAR-4 ovarian was greater than 100 µM throughout. Besides, the TGI in the test with PC-3 prostate, in the test on NCI-H23 lung, in the test on NCI-H522 lung and in the test on MDA-MB-435 was greater than 100 µM each time.

Regarding `O=c1[nH]c(NCCCCCO)nc2nc[nH]c12`, the TGI in the test on MDA-N, with COLO 205 colon, in the test on SNB-19 CNS, in the test on CCRF-CEM leukemia, in the test on SF-268 CNS and in the test with OVCAR-4 ovarian was greater than 100 µM each time. The TGI in the test with PC-3 prostate, with NCI-H23 lung, in the test with NCI-H522 lung and in the test on MDA-MB-435 was greater than 100 µM in each case.

`COC1CCC(OS(C)(=O)=O)C(C)O1` (stereo not given): the TGI in the test with MDA-N, in the test with COLO 205 colon, in the test on SNB-19 CNS, in the test with CCRF-CEM leukemia, with SF-268 CNS and in the test with OVCAR-4 ovarian was greater than 10 µM in each case. Besides, the TGI with PC-3 prostate, in the test on NCI-H23 lung, in the test on NCI-H522 lung and in the test on MDA-MB-435 was greater than 10 µM throughout.

Take `C=C(CCC(=O)N(CCc1c[nH]c2ccccc12)C(=O)c1ccccc1CSCC)C(=O)OC`: the TGI in the test on MDA-N was greater than 100 µM; with COLO 205 colon it was 54.6 µM; in the test with SNB-19 CNS, greater than 100 µM; in the test on CCRF-CEM leukemia it was greater than 100 µM; in the test on SF-268 CNS it was greater than 100 µM; in the test with OVCAR-4 ovarian it was greater than 100 µM. Also, the TGI in the test on PC-3 prostate, in the test with NCI-H23 lung, with NCI-H522 lung and in the test with MDA-MB-435 was greater than 100 µM throughout.

In the case of `COC(=O)c1sc2c(Cl)c(Cl)sc2c1Cl`, the TGI in the test with MDA-N, with COLO 205 colon, in the test with SNB-19 CNS, with CCRF-CEM leukemia, in the test on SF-268 CNS and in the test with OVCAR-4 ovarian was greater than 100 µM throughout. Further, the TGI in the test on PC-3 prostate, in the test on NCI-H23 lung, in the test with NCI-H522 lung and in the test with MDA-MB-435 was greater than 100 µM throughout.

As for `CCOC(=O)CC1(N)CC2c3ccccc3OC(=O)C2C(=O)N1` (stereo not given), the TGI in the test on MDA-N, with COLO 205 colon, with SNB-19 CNS, with CCRF-CEM leukemia, in the test on SF-268 CNS and in the test on OVCAR-4 ovarian was greater than 100 µM throughout. For the same compound, the TGI in the test on PC-3 prostate, in the test on NCI-H23 lung, in the test on NCI-H522 lung and with MDA-MB-435 was greater than 100 µM in each case.

In the case of `Cn1c(COC(=O)NC2CCCCC2)c(COC(=O)NC2CCCCC2)c2ccc3ccccc3c21`, the TGI in the test on MDA-N, with COLO 205 colon, with SNB-19 CNS, in the test with CCRF-CEM leukemia, with SF-268 CNS and in the test with OVCAR-4 ovarian was greater than 100 µM throughout. For the same compound, the TGI with PC-3 prostate was greater than 100 µM; with NCI-H23 lung, 71.6 µM; in the test on NCI-H522 lung it was 31.5 µM; in the test with MDA-MB-435, greater than 100 µM.

Consider `C[N+](C)([O-])C12CC3CC(CC(C3)C1)C2`, for which the TGI is greater than 100 µM with MDA-N; 70.9 µM in the test on COLO 205 colon; greater than 100 µM in the test on SNB-19 CNS; greater than 100 µM with CCRF-CEM leukemia; greater than 100 µM in the test with SF-268 CNS; greater than 100 µM with OVCAR-4 ovarian. In addition, the TGI with PC-3 prostate is greater than 100 µM; in the test on NCI-H23 lung it was greater than 100 µM; in the test on NCI-H522 lung, 65.7 µM; in the test on MDA-MB-435, greater than 100 µM.

In the case of `CC[P+](c1ccccc1)(N(C)C)N(C)C`, the TGI with MDA-N, in the test with COLO 205 colon, in the test with SNB-19 CNS, with CCRF-CEM leukemia, with SF-268 CNS and in the test on OVCAR-4 ovarian was greater than 100 µM in each case. Moreover, the TGI in the test with PC-3 prostate, in the test with NCI-H23 lung, with NCI-H522 lung and in the test with MDA-MB-435 was greater than 100 µM in each case.

For the compound `CC(=O)CCN1CC2CN=NC2(C#N)C1` (stereo not given), the TGI with MDA-N is greater than 100 µM; in the test with COLO 205 colon it was greater than 100 µM; in the test on SNB-19 CNS it was greater than 100 µM; in the test on CCRF-CEM leukemia, greater than 61 µM; in the test on SF-268 CNS, greater than 100 µM; in the test on OVCAR-4 ovarian, greater than 100 µM. Moreover, the TGI with PC-3 prostate is greater than 100 µM; with NCI-H23 lung, greater than 100 µM; in the test with NCI-H522 lung, greater than 20.9 µM; with MDA-MB-435, greater than 100 µM.

For the compound `COC1=C(OC)C(=O)C(Cc2c(-c3ccccc3)nc3sc(Cl)cn23)=C(C)C1=O`, the TGI was determined as 34.2 µM in the test on MDA-N; 33.5 µM in the test with COLO 205 colon; 35.3 µM in the test on SNB-19 CNS; 53 µM with CCRF-CEM leukemia; 41.2 µM in the test on SF-268 CNS; 18.8 µM in the test with OVCAR-4 ovarian. The TGI in the test with PC-3 prostate was 33.3 µM; in the test with NCI-H23 lung it was 35.8 µM; in the test with NCI-H522 lung it was 30.8 µM; with MDA-MB-435 it was 33.1 µM.

For the compound `CC1=NN(c2cc(Cl)c(S(=O)(=O)O)cc2Cl)C2(C1)C(Cl)C(=O)N2c1nc2ccccc2s1` (stereo not given), the TGI with MDA-N, in the test on COLO 205 colon, with SNB-19 CNS, in the test with CCRF-CEM leukemia, in the test on SF-268 CNS and with OVCAR-4 ovarian was greater than 100 µM each time. In addition, the TGI with PC-3 prostate was greater than 100 µM; with NCI-H23 lung, greater than 100 µM; in the test on NCI-H522 lung, 71.2 µM; in the test with MDA-MB-435, greater than 100 µM.
